Test results as given in patent publication US20230391772A1, “METHODS AND COMPOSITIONS FOR TARGETED PROTEIN DEGRADATION” (Ranok Therapeutics (Hangzhou) Co. Ltd., priority 2020, published 2023).

Experiments:
[1] = molecular target: T1, HSP90a protein (Homo sapiens, UniProt P07900); test: HSP90α-binding fluorescent polarization (FP) assay, BODIPY-labeled RNK04010 probe; conditions: FP competition with RNK04010 (BODIPY-labeled), 5 nM, 300 min at 25° C.
T1 construct: purchased BPS Bioscience 50298
Summary of the method: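 Compound dilutions (20 μM to 5.2 nM, 2.5-fold) are combined with 5 nM final labeled probe, and HSP90a N-terminal protein is added last. Plates are shaken briefly and held at 25° C for 120 min (FITC-geldanamycin) or 300 min (BODIPY-RNK04010), then FP is measured.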

[2] = system: NCI-H358 human non-small cell lung cancer; test: NCI-H358 CCK-8 proliferation assay; type: cell-based; conditions: NCI-H358 cells, 72 hr
Experimental: The following cancer cell lines were employed: BT-474 human breast carcinoma (ATCC, #HTB-20); MIA PaCa-2 human pancreatic carcinoma [2 copies KRAS(G12C)](ATCC, #CRL-1420); NCI-H23 human non-small cell lung cancer [1 copy KRAS(G12C)](ATCC, #CRL-5800); NCI-H358 human non-small cell lung cancer [1 copy KRAS(G12C)](ATCC, #CRL-5807); LU65A human lung carcinoma (Pharmaron, Beijing, China). Cell lines were cultured essentially according to ATCC and Pharmaron recommendations.
Cancer Cell Line Proliferation (CCK-8) Assays
3-fold serial dilutions of each test compound were prepared ranging from 20 μM to 1.02 nM.
% Inhibition=100−(D−B)/(S−B)*100%. • S: Absorbance of cells treated with DMSO • D: Absorbance of compound-treated cells • B: Absorbance of medium with DMSO without cells

[3] = molecular target: KRAS(G12C) (Homo sapiens, UniProt P01116, G12C); test: KRAS(G12C)/SOS1 homogeneous time-resolved fluorescence (HTRF) assay; design: purchased Cisbio 63ADK000CB16PEG; conditions: absence of GTP, 4° C. for 3 hr, read-out: KRAS (G12C) binding
Summary of the method: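 Three-hour incubation at 4 °C of 3-fold compound dilutions (lowest 1.02 nM) with KRAS(G12C), SOS1 and detection reagents, GTP absent. Disruption of the KRAS(G12C)/SOS1 complex detected by time-resolved fluorescence.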

[4] = system: MIA PaCa-2 human pancreatic carcinoma; test: MIA PaCa-2 CCK-8 proliferation assay; type: cell-based; conditions: Homo sapiens, MIA PaCa-2, 72 h, MIA PaCa-2 cells
Summary of the method: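 Percent inhibition derived from CCK-8 optical signal, normalised between DMSO-only cells (0%) and cell-free medium containing DMSO as background. Cells: MIA PaCa-2 carrying 2 KRAS(G12C) copies; NCI-H358, NCI-H23 carrying 1 copy apiece. Concentrations spanned 1.02 nM–20 μM in threefold increments.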

Chain of KRAS(G12C) (P01116 1-188 isoform P01116-2 G12C): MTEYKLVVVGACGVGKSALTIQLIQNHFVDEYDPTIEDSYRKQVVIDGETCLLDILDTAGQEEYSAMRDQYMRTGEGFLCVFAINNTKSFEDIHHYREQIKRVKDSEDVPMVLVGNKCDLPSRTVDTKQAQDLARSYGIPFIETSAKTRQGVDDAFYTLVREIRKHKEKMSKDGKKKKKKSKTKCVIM

| SMILES | IC50 [1] [nM] | EC50 [2] [nM] | IC50 [3] [nM] | EC50 [4] [nM] |
| --- | --- | --- | --- | --- |
| C=CC(=O)N1CCN(c2nc(NCCC(=O)N3CCC(CN4CCN(Cc5ccc(-n6c(O)nnc6-c6ccc(O)cc6O)cc5)CC4)CC3)nc3c2CCN(c2cc(O)cc4ccccc24)C3)CC1 [Compound 13, 1-(4-(2-((3-(4-((4-(4-(3-(2,4-dihydroxyphenyl)-5-hydroxy-4H-1,2,4-triazol-4-yl)benzyl)piperazin-1-yl)methyl)piperidin-1-yl)-3-oxopropyl)amino)-7-(3-hydroxynaphthalen-1-yl)-5,6,7,8-tetrahydropyrido[3,4-d]pyrimidin-4-yl)piperazin-1-yl)prop-2-en-1-one, trifluoroacetic acid] | > 1000 | > 1000 |  |  |
| C=CC(=O)N1CCN(c2nc(NCCC(=O)NCc3ccc(CN4CCC(Cc5ccc(-n6c(C(=O)NCC(F)(F)F)nnc6-c6cc(CC)c(O)cc6O)cc5)CC4)cc3)nc3c2CCN(c2cc(O)cc4ccccc24)C3)CC1 [Compound 125, 4-(4-((1-(4-((3-((4-(4-acryloylpiperazin-1-yl)-7-(3-hydroxynaphthalen-1-yl)-5,6,7,8-tetrahydropyrido[3,4-d]pyrimidin-2-yl)amino)propanamido)methyl)benzyl)piperidin-4-yl)methyl)phenyl)-5-(5-ethyl-2,4-dihydroxyphenyl)-N-(2,2,2-trifluoroethyl)-4H-1,2,4-triazole-3-carboxamide, trifluoroacetic acid] | 100 to 1000 | 100 to 1000 |  |  |
| C=CC(=O)N1CCN(c2nc(NCCC(=O)NCCOCCOCCOc3ccc(-n4c(O)nnc4-c4cc(CC)c(O)cc4O)cc3)nc3c2CCN(c2cc(O)cc4ccccc24)C3)CC1 [Compound 5, 3-((4-(4-acryloylpiperazin-1-yl)-7-(3-hydroxynaphthalen-1-yl)-5,6,7,8-tetrahydropyrido[3,4-d]pyrimidin-2-yl)amino)-N-(2-(2-(2-(4-(3-(5-ethyl-2,4-dihydroxyphenyl)-5-hydroxy-4H-1,2,4-triazol-4-yl)phenoxy)ethoxy)ethoxy)ethyl)propanamide, trifluoroacetic acid] | > 1000 | > 1000 |  |  |
| C=CC(=O)N1CCN(c2nc(NCCC(=O)NCc3ccc(-n4c(O)nnc4-c4cc(CC)c(O)cc4O)cc3C(F)(F)F)nc3c2CCN(c2cc(O)cc4ccccc24)C3)CC1 [Compound 39, 3-((4-(4-acryloylpiperazin-1-yl)-7-(3-hydroxynaphthalen-1-yl)-5,6,7,8-tetrahydropyrido[3,4-d]pyrimidin-2-yl)amino)-N-(4-(3-(5-ethyl-2,4-dihydroxyphenyl)-5-hydroxy-4H-1,2,4-triazol-4-yl)-2-(trifluoromethyl)benzyl)propanamide, trifluoroacetic acid] | > 1000 | > 1000 |  |  |
| C=CC(=O)N1CCN(c2nc(NCCC(=O)NCc3ccc(-n4c(O)nnc4-c4cc(C(C)C)c(O)cc4O)cc3C(F)(F)F)nc3c2CCN(c2cc(O)cc4ccccc24)C3)CC1 [Compound 36, 3-((4-(4-acryloylpiperazin-1-yl)-7-(3-hydroxynaphthalen-1-yl)-5,6,7,8-tetrahydropyrido[3,4-d]pyrimidin-2-yl)amino)-N-(4-(3-(2,4-dihydroxy-5-isopropylphenyl)-5-hydroxy-4H-1,2,4-triazol-4-yl)-2-(trifluoromethyl)benzyl)propanamide, trifluoroacetic acid] | 100 to 1000 | > 1000 |  |  |
| C=CC(=O)N1CCN(c2nc(OC[C@@H]3C[C@@H](NC(=O)C4CCN(Cc5ccc(-n6c(O)nnc6-c6cc(C(C)C)c(O)cc6O)cc5)CC4)CN3C)nc3c2CCN(c2cccc4cccc(Cl)c24)C3)C[C@@H]1CC#N [Compound 205, N-((3R,5S)-5-(((4-((S)-4-acryloyl-3-(cyanomethyl)piperazin-1-yl)-7-(8-chloronaphthalen-1-yl)-5,6,7,8-tetrahydropyrido[3,4-d]pyrimidin-2-yl)oxy)methyl)-1-methylpyrrolidin-3-yl)-1-(4-(3-(2,4-dihydroxy-5-isopropylphenyl)-5-hydroxy-4H-1,2,4-triazol-4-yl)benzyl)piperidine-4-carboxamide] | < 100 |  | 100 to 1000 | 100 to 1000 |

Results, then the compound that gave them:

| IC50 [1] [nM] | EC50 [2] [nM] | IC50 [3] [nM] | EC50 [4] [nM] | SMILES |
| --- | --- | --- | --- | --- |
| 100 to 1000 | > 1000 |  |  | CCC(=O)N1CCN(c2nc(NCCC(=O)N3CCN(Cc4ccc5c(c4)CN(C(=O)c4cc(C(C)C)c(O)cc4O)C5)CC3)nc3c2CCN(c2cc(O)cc4ccccc24)C3)CC1 [Compound 57, 1-(4-((2-(2,4-dihydroxy-5-isopropylbenzoyl)isoindolin-5-yl)methyl)piperazin-1-yl)-3-((7-(3-hydroxynaphthalen-1-yl)-4-(4-propionylpiperazin-1-yl)-5,6,7,8-tetrahydropyrido[3,4-d]pyrimidin-2-yl)amino)propan-1-one, trifluoroacetic acid] |
| < 100 | > 1000 |  |  | C=CC(=O)N1CCN(c2nc(NCCC(=O)NCC3CCN(C(=O)C4CCN(Cc5ccc(-n6c(O)nnc6-c6cc(C(C)C)c(O)cc6O)cc5)CC4)CC3)nc3c2CCN(c2cccc4ccccc24)C3)C[C@H]1CC#N [Compound 101, (R)-3-((4-(4-acryloyl-3-(cyanomethyl)piperazin-1-yl)-7-(naphthalen-1-yl)-5,6,7,8-tetrahydropyrido[3,4-d]pyrimidin-2-yl)amino)-N-((1-(1-(4-(3-(2,4-dihydroxy-5-isopropylphenyl)-5-hydroxy-4H-1,2,4-triazol-4-yl)benzyl)piperidine-4-carbonyl)piperidin-4-yl)methyl)propanamide, trifluoroacetic acid] |
| 100 to 1000 | > 1000 |  |  | CCC(=O)N1CCN(c2nc(NCCC(=O)NCc3ccc(-n4c(O)nnc4-c4cc(C(C)C)c(O)cc4O)cc3)nc3c2CCN(c2cc(O)cc4ccccc24)C3)CC1 [Compound 50, N-(4-(3-(2,4-dihydroxy-5-isopropylphenyl)-5-hydroxy-4H-1,2,4-triazol-4-yl)benzyl)-3-((7-(3-hydroxynaphthalen-1-yl)-4-(4-propionylpiperazin-1-yl)-5,6,7,8-tetrahydropyrido[3,4-d]pyrimidin-2-yl)amino)propanamide, trifluoroacetic acid] |
| < 100 | > 1000 |  |  | C=CC(=O)N1CCN(c2nc(NCCC(=O)NCC3CCN(C(=O)C4CCN(Cc5ccc(-n6c(O)nnc6-c6cc(C(C)C)c(O)cc6O)cc5)CC4)CC3)nc3c2CCN(c2cccc4cccc(Cl)c24)C3)C[C@H]1CC#N [Compound 102, (R)-3-((4-(4-acryloyl-3-(cyanomethyl)piperazin-1-yl)-7-(8-chloronaphthalen-1-yl)-5,6,7,8-tetrahydropyrido[3,4-d]pyrimidin-2-yl)amino)-N-((1-(1-(4-(3-(2,4-dihydroxy-5-isopropylphenyl)-5-hydroxy-4H-1,2,4-triazol-4-yl)benzyl)piperidine-4-carbonyl)piperidin-4-yl)methyl)propanamide, trifluoroacetic acid] |
| < 100 |  | > 1000 | > 1000 | C=CC(=O)N1CCN(c2nc(OCCN3CCN(C(=O)c4ccc(-n5c(O)nnc5-c5cc(C(C)C)c(O)cc5O)cc4)CC3)nc3c2CCN(c2cccc4cccc(Cl)c24)C3)C[C@@H]1CC#N [Compound 195, (S)-2-(1-acryloyl-4-(7-(8-chloronaphthalen-1-yl)-2-(2-(4-(4-(3-(2,4-dihydroxy-5-isopropylphenyl)-5-hydroxy-4H-1,2,4-triazol-4-yl)benzoyl)piperazin-1-yl)ethoxy)-5,6,7,8-tetrahydropyrido[3,4-d]pyrimidin-4-yl)piperazin-2-yl)acetonitrile, trifluoroacetic acid] |
| < 100 |  | 100 to 1000 | 100 to 1000 | C=CC(=O)N1CCN(c2nc(OCCN3CCC(C(=O)N4CCC(Cc5ccc(-n6c(C(=O)NCC(F)(F)F)nnc6-c6cc(C(C)C)c(O)cc6O)cc5)CC4)CC3)nc3c2CCN(c2cccc4cccc(Cl)c24)C3)C[C@@H]1CC#N [Compound 212, (S)-4-(4-((1-(1-(2-((4-(4-acryloyl-3-(cyanomethyl)piperazin-1-yl)-7-(8-chloronaphthalen-1-yl)-5,6,7,8-tetrahydropyrido[3,4-d]pyrimidin-2-yl)oxy)ethyl)piperidine-4-carbonyl)piperidin-4-yl)methyl)phenyl)-5-(2,4-dihydroxy-5-isopropylphenyl)-N-(2,2,2-trifluoroethyl)-4H-1,2,4-triazole-3-carboxamide] |
